From ChEMBL document CHEMBL1136782, “Further studies on 2,4-diamino-5-(2',5'-disubstituted benzyl)pyrimidines as potent and selective inhibitors of dihydrofolate reductases from three major opportunistic pathogens of AIDS” (J Med Chem, 2003)

Columns and labels:
[1] = biological target: T1, Dihydrofolate reductase (Mycobacterium avium, UniProt O30463)
T1 sequence (O30463 whole entry): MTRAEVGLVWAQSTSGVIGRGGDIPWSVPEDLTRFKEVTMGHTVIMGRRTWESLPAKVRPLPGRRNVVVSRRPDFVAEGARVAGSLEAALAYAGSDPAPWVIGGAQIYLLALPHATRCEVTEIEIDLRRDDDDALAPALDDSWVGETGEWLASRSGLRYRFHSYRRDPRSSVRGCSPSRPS
Description: Inhibition of Dihydrohydrofolate reductase(DHFR) of Mycobacterium avium

[2] = biological target: T2, Bifunctional dihydrofolate reductase-thymidylate synthase (Toxoplasma gondii, UniProt Q07422)
T2 sequence (Q07422 whole entry): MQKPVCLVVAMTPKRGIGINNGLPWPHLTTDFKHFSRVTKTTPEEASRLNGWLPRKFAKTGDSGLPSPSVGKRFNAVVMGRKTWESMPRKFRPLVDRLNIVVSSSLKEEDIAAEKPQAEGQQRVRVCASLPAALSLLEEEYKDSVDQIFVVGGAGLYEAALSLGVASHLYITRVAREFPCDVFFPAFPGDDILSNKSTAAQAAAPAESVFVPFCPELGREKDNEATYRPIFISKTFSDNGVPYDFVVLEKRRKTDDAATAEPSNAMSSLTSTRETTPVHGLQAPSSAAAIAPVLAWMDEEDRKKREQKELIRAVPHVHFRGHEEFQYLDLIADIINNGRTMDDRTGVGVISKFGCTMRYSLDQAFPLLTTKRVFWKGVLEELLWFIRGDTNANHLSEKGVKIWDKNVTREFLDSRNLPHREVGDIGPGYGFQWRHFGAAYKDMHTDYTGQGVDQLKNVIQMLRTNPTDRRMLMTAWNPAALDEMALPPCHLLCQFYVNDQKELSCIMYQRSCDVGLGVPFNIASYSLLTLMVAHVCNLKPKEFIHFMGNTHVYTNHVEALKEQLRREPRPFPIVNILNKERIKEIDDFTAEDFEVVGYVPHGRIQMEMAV
Description: Inhibitory activity against Dihydrohydrofolate reductase(DHFR) of Toxoplasma gondii

[3] = Relative affinity for Dihydrofolate reductase of rat liver and Mycobacterium avium
[4] = biological target: T3, Dihydrofolate reductase (Rattus norvegicus, UniProt Q920D2)
T3 sequence (Q920D2 whole entry): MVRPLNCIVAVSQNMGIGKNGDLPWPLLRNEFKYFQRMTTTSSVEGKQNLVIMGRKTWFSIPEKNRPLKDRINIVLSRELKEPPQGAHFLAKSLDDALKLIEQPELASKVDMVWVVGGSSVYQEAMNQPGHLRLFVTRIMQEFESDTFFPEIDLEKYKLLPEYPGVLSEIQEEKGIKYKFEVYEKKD
Description: Inhibitory activity against Dihydrohydrofolate reductase (DHFR) of rat

| SMILES | IC50 [2] [nM] | also measured |
| --- | --- | --- |
| COc1ccc(C#CCCCC(=O)O)cc1Cc1cnc(N)nc1N | – | IC50 [1]: 7.8 nM |
| Nc1nc(N)c2nc(C(=O)c3ccccc3)c(-c3ccccc3)nc2n1 | 860 | – |
| Nc1nc(N)c2c(CNc3cccc4c3CCCC4)c[nH]c2n1 | 1100 | – |
| Nc1nc(N)c2nc(-c3ccccc3)c(-c3ccccc3)nc2n1 | 240 | – |
| COc1ccc(C#CCOc2ccccc2C(=O)O)cc1Cc1cnc(N)nc1N | – | Selectivity index [3]: 170 |
| COc1ccc(OCCCC(=O)O)cc1Cc1cnc(N)nc1N | – | IC50 [4]: 2700 nM |
| COc1cc(Cc2cnc(N)nc2N)cc(OC)c1-n1cccc1 | 470 | – |
| Nc1nc(N)c2nc(CCSc3ccccc3)cnc2n1 | 770 | – |
| Cc1cccc(-c2nc3c(N)nc(N)nc3nc2N)c1 | 18 | – |
